Publication PMC8877061, “Antifungal and Antibiofilm Activity of Cyclic Temporin L Peptide Analogues against Albicans and Non-Albicans Candida Species” (Pharmaceutics, 2022)
Values after ≈ are worked out from the molar mass of the structure shown. Values joined by “and” are separate entries in the source; they are usually repeats but may differ in a detail not shown here. Identical values can stand only once. Positions of bridges follow the written chain, without caps; N, C: chain ends. Non-standard residues stand in square brackets, D forms with d. Residues, ends and D or L forms follow the SMILES beside them. Triazole bridges read from a SMILES are 1,4-linked. Lys(N3) = [N-]=[N+]=NCCCC[C@H](N)C(=O)O; Pra = C#CC[C@H](N)C(=O)O

Assays:
[1] = ANTS/DPX leakage, fungal membrane-like LUVs; details: for leakage activity against liposomes mimicking the fungal membrane: PE/PC/PI/ergosterol LUVs, concentration not given; for liposome leakage (ANTS release), fungal membrane-like LUVs: peptide 20 μM, PE/PC/PI/ergosterol LUVs 0.1 mM lipid, PBS pH 7.2, 10 min, fluorescence 385/512 nm
Experimental: (§1) ANTS/DPX-entrapped large unilamellar vesicles (LUVs) composed of PE/PC/PI/Ergosterol (5:4:1:2, w/w/w/w) and Chol/DOPC (70:30, ratio in moles) were prepared by the extrusion method as previously described in [28]. First, the lipid films were prepared by dissolving lipids in the proper ratio in chloroform to have a final concentration of 0.1 mM and then dried under a nitrogen gas stream. The probes of ANTS (12.5 mM) and DPX (45 mM) dissolved in water were added to the lipid films, and the mixture was freeze-dried overnight. The lipid films with encapsulated ANTS and DPX were hydrated with a PBS 1× buffer (pH = 7.2), vortexed for 1 h, freeze-thawed 6 times and extruded 10 times through 0.1-μm pore size polycarbonate filters to obtain the LUVs. The LUVs with entrapped ANTS and DPX were separated from the free ANTS and DPX by gel filtration chromatography on a Sephadex G-50 column (1.5 × 10 cm). The assay was based on the measurement of dequenching of ANTS by DPX when the LUVs were incubated with peptide concentrations of 5, 10, 15, 20, 30 and 50 μM. The increase in ANT fluorescence was recorded at an excitation fluorescence at 385 nm (slit width: 5 nm) and a fluorescence emission at 512 nm (slit width: 5 nm) for 10 min after the addition of the peptide. The destruction of all LUVs and the complete release of ANTs were obtained after treatment with 10% Triton-X. The percentage of liposome leakage was calculated as %leakage = (Fi − F0)/(Ft − F0), where F0 represents the fluorescence of the intact LUVs before the addition of the peptide and Fi and Ft are the intensities of the fluorescence achieved after peptide and Triton-X treatment, respectively.

[2] = tested on: G. mellonella larvae infected by different Candida species; experiment: G. mellonella fungal infection model (Kaplan-Meier survival); format: in vivo; details: for in vivo effectiveness on infected G. mellonella larvae: 10^6 yeast cells with 12.5 μM peptide, 10 μL injected, 37 °C, different Candida species
Experimental: The G. mellonella fungal infection model was performed as described previously. We first determined the lethal concentrations of C. albicans, C. auris, C. glabrata, C. tropicalis and C. parapsilosis inocula by injecting concentrations of 10^4, 10^5 or 10^6 cells/larvae. The larvae were kept in Petri dishes at 37 °C, and survival was monitored for 3 d. A system of scoring already proposed by Loh et al. based on survival, mobility, degree of melanization, and the ability to produce a cocoon was used to evaluate the physical state of the larvae for 3 days. To evaluate the effects of the five peptides on Candida infection and compare mortality, 10 μL of 10^6 yeast cells in a medium containing 12.5 μM of each peptide’s concentrations was injected into the last left proleg of the larvae and incubated at 37 °C. The larvae were incubated at 37 °C and monitored daily for survival.

C. albicans cells = experiment: Zeta potential of fungal cells by dynamic light scattering; format: cell-based; parameters: Calculated Zeta Potential: unit not given here; details: for Experimental Zeta Potential (ς): C. albicans cells after peptide 25 μM, PBS 0.001×, electrophoretic light scattering; for Calculated Zeta Potential: theoretical: charge of the peptide added to the zeta potential of the C. albicans cells
Experimental: The zeta potential of the fungal cells was recorded in a suspension (0.5 × 10^6 cells/mL) using the electrophoretic light scattering technique on a Zetasizer Nano ZS analyzer. Before the peptide treatment, the cells were suspended using a 0.05% trypsin solution in 0.53 mM EDTA. The concentration of the suspended cells in a buffered phosphate saline (PBS, 1.7 mM KH2PO4, 5.2 mM Na2HPO4 and 150 mM NaCl) was determined on a hemocytometer. The measurements were performed by diluting the cells with PBS 0.001× and treating them with the peptide at a concentration of 25 μM.

C. parapsilosis DSM 5784 = format: cell-based; details: DSM 5784, 24 h
[3] = Circular dichroism in liposomes mimicking eukaryotic membranes; format: physicochemical; details: SUVs DOPC:Chol 70:30, peptide 80 μM; for helical content: CD, phosphate buffer 5 mM pH 7.4, 25 °C, from [θ]222
Experimental: The circular dichroism spectra of the selected peptides (3, 7, 15 and 16) were recorded in small unilamellar vesicles (SUVs) composed of PE/PC/PI/Ergosterol (5:4:1:2, w/w/w/w, final lipid concentration = 0.01 mM) and DOPC/Chol (70:30, ratio in moles, final lipid concentration = 0.1 mM), between 190 and 260 nm on a JASCO J-710 CD spectropolarimeter at 25 °C using quartz cells with a 0.1-cm path length. The SUVs were prepared as reported in the following protocol. Once the lipid films were prepared as described above, they were hydrated with a phosphate buffer (5 mM, pH 7.4) (DOPC:Chol) or water (PE/PC/PI/Ergosterol) for 1 h and sonicated for 40 min. The peptides were dissolved in water to form a sample with a concentration of 80 μM in SUVs made of DOPC/Chol, while a peptide concentration of 10 μM was used in SUVs made of PE/PC/PI/Ergosterol. We accumulated the data three times, and all spectral data were subtracted from the background. Each spectrum converted the signal to the mean molar ellipticity, and we calculated the ratio of the ellipticities at 222 and 208 nm to discriminate between the monomeric and oligomeric states of the helices. The helix content was calculated as follows: [θ]222/(−40,000[1 − 2.5/n)], where [θ]222 is the ellipticity measurement at 222 nm and n is the number of amino acid residues.

[4] = Critical aggregation concentration with Nile red; format: physicochemical; details: aqueous solution, Nile red 500 nM, 1 h, peptide 1-200 μM, emission maximum fitted with Boltzmann sigmoid, triplicate
Experimental: The peptide aggregation in the aqueous solution was monitored using Nile red as a dye probe. Nile red has poor solubility in water, and it has a large tendency to move in a hydrophobic environment as aggregates, showing a blue shift. First, the stock solutions of the peptides were prepared by dissolving them in ethanol, and then different aliquots were taken to prepare the peptide solutions at different concentrations (1, 5, 10, 15, 20, 30, 50, 100 and 200 μM). The ethanol was evaporated under a nitrogen gas stream and then dissolved with sterile water (1.5 mL), sonicated for 15 min and freeze-dried. Then, each peptide solution was hydrated with Nile red solution (C = 500 nM) in the dark place for 1 h before measurement. The emission spectra of Nile red were measured between 570 and 700 nm at a slit width of 5 nm using an excitation wavelength of 550 nm and a 10-nm slit width. The data were repeated in triplicate and analyzed by plotting the maximum emission fluorescence corresponding wavelength (y) as a function of the peptide concentration (x) and fitting with the sigmoidal Boltzmann equation: y=A1−A2/1+e^(x−x0/Δx)+A2
In the equation, A1 and A2 indicate the upper and lower limits of the sigmoid, respectively, x0 is the inflection point of the sigmoid and Δx is the parameter which represents the steepness of the function. The sigmoidal plot allows for calculating the CAC value at x0.

[5] = ANTS/DPX leakage, eukaryotic membrane-like LUVs; details: peptide 50 μM, Chol/DOPC LUVs 0.1 mM lipid, PBS pH 7.2, 10 min, fluorescence 385/512 nm
Experimental: as §1

Row | Structure (SMILES) | leakage activity against liposomes mimicking the fungal membrane [1] | liposome leakage (ANTS release), fungal membrane-like LUVs [1] | survival rate of infected larvae ([2]; 12.5 μM, larvae infected by all strains, after 48 h) | in vivo effectiveness on infected G. mellonella larvae [2] | Experimental Zeta Potential (ς) (C. albicans cells) | Calculated Zeta Potential (C. albicans cells) | MFC, C. parapsilosis DSM 5784 (C. parapsilosis DSM 5784) | helical content [3] | critical aggregation concentration (CAC) [4] | liposome leakage (ANTS release), eukaryotic membrane-like LUVs [5] | ratio of the ellipticities at 222 and 208 nm ([3]; >1 = helical aggregates) | conformation by CD in DOPC:Chol liposomes ([3]; 25 °C)
1 | CC[C@H](C)[C@H](NC(=O)[C@H](CCCNC(=N)N)NC(=O)[C@@H]1CCC(=O)NCCCC[C@H](NC(=O)[C@H](Cc2ccccc2)NC(=O)[C@H](Cc2c[nH]c3ccccc23)NC(=O)[C@@H]2CCCN2C(=O)[C@@H](NC(=O)[C@@H](N)Cc2ccccc2)C(C)C)C(=O)N[C@@H](CCCCN)C(=O)N[C@@H](Cc2ccccc2)C(=O)N[C@H](CC(C)C)C(=O)N1)C(=O)N[C@@H](CC(C)C)C(N)=O [compound 3] (H-FVPWFKKF[dL]ERIL-NH2; lactam 6-10; N-terminus assumed) | ~30% | ~ 30% | increased the survival rate | in vivo effectiveness | 1.6 ± 0.3 mV | −3.2 ± 0.5 | 50 µM (≈ 85.2 µg/mL) | ~ 13% | 17.3 ± 0.9 µM | ~ 28% |  | 
2 | CC(C)C[C@H](NC(=O)[C@@H]1CCCCn2cc(nn2)C[C@H](NC(=O)[C@H](CCCCN)NC(=O)[C@H](CO)NC(=O)[C@H](Cc2ccccc2)NC(=O)[C@H](Cc2c[nH]c3ccccc23)NC(=O)[C@@H]2CCCN2C(=O)[C@@H](NC(=O)[C@@H](N)Cc2ccccc2)C(C)C)C(=O)N[C@H](CC(C)C)C(=O)NCC(=O)N[C@@H](CCCNC(=N)N)C(=O)N1)C(N)=O [compound 7] (H-FVPWFSK[Pra][dL]GR[Lys(N3)]L-NH2; triazole 8-12; N-terminus assumed) |  | lower ANTS release |  | in vivo effectiveness | −4.5 ± 1.6 mV | −3.2 ± 0.5 | 50 µM (≈ 79.9 µg/mL) | ~ 23% | 45.4 ± 0.8 µM | ~ 28% |  | 
3 | CC[C@H](C)[C@H](NC(=O)[C@H](CCCNC(=N)N)NC(=O)[C@@H]1CCCCNC(=O)CC[C@H](NC(=O)[C@H](Cc2ccccc2)NC(=O)[C@H](Cc2c[nH]c3ccccc23)NC(=O)[C@@H]2CCCN2C(=O)[C@@H](NC(=O)[C@@H](N)Cc2ccccc2)C(C)C)C(=O)N[C@@H](CCCCN)C(=O)N[C@@H](Cc2ccccc2)C(=O)N[C@H](CC(C)C)C(=O)N1)C(=O)N[C@@H](CC(C)C)C(N)=O [compound 15] (H-FVPWFEKF[dL]KRIL-NH2; lactam 6-10; N-terminus assumed) | less than 20% | lower ANTS release |  | in vivo effectiveness | 13.5 ± 3.4 mV | −3.2 ± 0.5 | 50 µM (≈ 85.2 µg/mL) | ~ 48% | 17 µM and 17.8 ± 0.9 µM |  | greater than 1 | 
4 | CC[C@H](C)[C@H](NC(=O)[C@H](CCCNC(=N)N)NC(=O)[C@@H]1CSSC[C@H](NC(=O)[C@H](Cc2ccccc2)NC(=O)[C@H](Cc2c[nH]c3ccccc23)NC(=O)[C@@H]2CCCN2C(=O)[C@@H](NC(=O)[C@@H](N)Cc2ccccc2)C(C)C)C(=O)N[C@@H](CCCCN)C(=O)N[C@@H](Cc2ccccc2)C(=O)N[C@H](CC(C)C)C(=O)N1)C(=O)N[C@@H](CC(C)C)C(N)=O [compound 16] (H-FVPWFCKF[dL]CRIL-NH2; disulfide 6-10; N-terminus assumed) |  | lower ANTS release |  | in vivo effectiveness | −6.5 ± 0.2 mV | −3.2 ± 0.5 | >50 µM |  | 42.9 ± 0.7 µM | ~ 28% |  | random coil conformation
